Measurements from the NIST ThermoML archive (doi:10.1016/j.jct.2006.03.017).
± gives the expanded uncertainty stated by the source.

Key:
[1] = refractive index (Na D-line) (dimensionless); conditions: 293.15 K; 101.33 kPa; Liquid; Standard Abbe refractometry
[2] = Liquid

CCCCCCCC/C=C\CCCCCCCCO [(Z)-9-octadecen-1-ol]
refractive index [1]: 1.4603 ± 0.0032 | mass density ([2]; 293.15 K, 101.33 kPa): 848.5 ± 44 kg/m3 | vapor or sublimation pressure ([2]; 480.05 K, Distillation): 2 kPa
